# Measurements taken from the C3SDB collision cross section collection.
# Values joined by “and” are separate entries in the source; they are usually repeats but may differ in a detail not shown here. Identical values can stand only once.
# Legend:
# [1] = instrument: DT, single field, calibrated with Agilent tune mix (Agilent)
# [2] = instrument: DT, single field
# [3] = instrument: DT, stepped-field
# [4] = instrument: TW, calibrated with phosphatidylcholines (ESI+) and phosphatidylethanolamines (ESI-), doubly charged cardiolipins calibrated with poly-DL-…
# [5] = [M+H]+; instrument: TW; calibrated with phosphatidylcholines (ESI+) and phosphatidylethanolamines (ESI-)
smiles,measurement,setting,value
CCCCCCCCCCCCC=CC[C@@H](O)[C@H](COP(=O)([O-])OCC[N+](C)(C)C)NC(=O)CCCCCCCCCCCCCCCCCCCCCCC [SM(42:1)],collision cross section (N2),[1]; [M+HCOO]-,303 Å²
same,collision cross section (N2),[2]; [M+H]+,304.96 Å²
same,collision cross section (N2),[3]; [M+Na]+,309.3 Å²
CCCCCCCC/C=C/CCCCCCCC(=O)O[C@H](CO)COP(=O)(O)OCC(O)CO (some centres undefined) [LPG(18:1)],collision cross section (N2),[4]; [M-H]-,217.26 Å²
CCCCCC/C=C\CCCCCCCC(=O)OC(COC(=O)CCCCCCCC1CC1CCCCCC)COP(=O)(O)OCC(O)COP(=O)(O)OCC(COC(=O)CCCCCCCCCCCCCCC)OC(=O)CCCCCCC/C=C\CCCCCCCC (centres undefined) [CL(67:3)],collision cross section (N2),[4]; [M+2K]2+,428.6 Å²
same,collision cross section (N2),[4]; [M-2H]2-,404.47 Å²
CCCCCC/C=C\CCCCCCCC(=O)OC[C@H](COP(=O)(O)OC[C@@H](O)COC(=O)CCCCCCCCCCCCCCC)OC(=O)CCCCCCCCCCCCCCC [AcylPG(48:1)],collision cross section (N2),[4]; [M+Na]+,327.7 Å²
same,collision cross section (N2),[4]; [M-H]-,316.96 Å²
CCCCCC/C=C\CCCCCCCC(=O)OCC(COP(=O)(O)OCCN)OC(=O)CCCCCCCC1CC1CCCCCC (centres undefined) [PE(33:2)],collision cross section (N2),[4]; [M+H]+,268.71 Å²
same,collision cross section (N2),[4]; [M-H]-,257.69 Å²
CCCCCCCCCCCCCCC(=O)O[C@H](CO)COP(=O)([O-])OCC[NH3+] [LPE(0:0/15:0)],collision cross section (N2),[4]; [M+H]+,212.69 Å²
same,collision cross section (N2),[4]; [M+Na]+,216.84 Å²
same,collision cross section (N2),[4]; [M-H]-,202.25 Å²
CCCCCCCCCCCCCCCC(=O)OCC(COP(=O)(O)O)OC(=O)CCCCCCCC1CC1CCCCCCCC (centres undefined) [PA(35:1)],collision cross section (N2),[4]; [M-H]-,258.7 Å²
CCCCCCC1CC1CCCCCCCC(=O)O[C@H](CO)COP(=O)(O)OCC(O)CO (some centres undefined) [LPG(17:1)],collision cross section (N2),[4]; [M-H]-,213.68 Å²
CCCC/C=C\CCCCCCCC(=O)OC[C@H](COC(=O)CCCCCCC/C=C\CCCCCCCCC)OC(=O)CCCCCCC/C=C\CCCCCCCCC [TG(52:3)],collision cross section (N2),[1]; [M+NH4]+,320.2 Å²
same,collision cross section (N2),[2]; [M+NH4]+,318.16 Å² and 320.59 Å² and 322.8 Å²
same,collision cross section (N2),[2]; [M+Na]+,317.01 Å² and 319.26 Å²
CCCCCC/C=C\CCCCCCCC(=O)OC[C@H](COP(=O)(O)OCCNC(=O)CCCCCCCCCCCCCCC)OC(=O)CCCCCCCCCCCCCCC [AcylPE(48:1)],collision cross section (N2),[4]; [M+Na]+,325 Å²
same,collision cross section (N2),[4]; [M-H]-,316.85 Å²
CCCCCCCC/C=C/CCCCCCCC(=O)OC[C@@H](O)COP(=O)([O-])OCC[NH3+] [LPE(18:1/0:0)],collision cross section (N2),[4]; [M+H]+,214.35 Å²
same,collision cross section (N2),[4]; [M+Na]+,219.17 Å²
same,collision cross section (N2),[4]; [M-H]-,211.1 Å²
CCCCCCCCCCCCC=CC[C@@H](O)[C@H](COP(=O)([O-])OCC[N+](C)(C)C)NC(=O)CCCCCCCCCCCCCCCC [SM(35:1)],collision cross section (N2),[1]; [M+H]+,285.1 Å²
same,collision cross section (N2),[1]; [M+Na]+,285.6 Å²
same,collision cross section (N2),[2]; [M+H]+,284.31 Å²
same,collision cross section (N2),[3]; [M+Na]+,289.1 Å²
CCCCCC/C=C\CCCCCCCC(=O)OCC(COP(=O)(O)OCC(O)COP(=O)(O)OCC(COC(=O)CCCCCCCC1CC1CCCCCC)OC(=O)CCCCCCC/C=C\CCCCCC)OC(=O)CCCCCCC/C=C\CCCCCCCC (centres undefined) [CL(67:4)],collision cross section (N2),[4]; [M-2H]2-,404.19 Å²
CCCCCCCC/C=C\CCCCCCCCCC(=O)OC[C@@H](COC(=O)CCCCCCCCCCCC)OC(=O)CCCCCCCCC/C=C\CCCCCCCC [TG(53:2)],collision cross section (N2),[1]; [M+NH4]+,323.6 Å²
same,collision cross section (N2),[2]; [M+Na]+,321.52 Å² and 323.87 Å²
C=CCCCCCCCCCCCCC(=O)O[C@H](COC(=O)CCCCCCCCCCCCCCC)COP(=O)([O-])OCC[N+](C)(C)C [PC(31:1)],collision cross section (N2),[2]; [M+H]+,276.07 Å²
same,collision cross section (N2),[3]; [M+K]+,286.5 Å²
CC/C=C\C/C=C\C/C=C\C/C=C\C/C=C\CCCCCC(=O)OC[C@@H](COC(=O)CCCCCCC/C=C\CCCCCC)OC(=O)CCCCCC/C=C\C/C=C\C/C=C\CCCCC [TG(58:9)],collision cross section (N2),[1]; [M+NH4]+,330 Å²
same,collision cross section (N2),[2]; [M+NH4]+,328.42 Å² and 327.73 Å²
same,collision cross section (N2),[2]; [M+Na]+,329.2 Å²
CCCCCC/C=C\CCCCCCCC(=O)OCC(COP(=O)(O)O)OC(=O)CCCCCCCC1CC1CCCCCCCC (centres undefined) [PA(35:2)],collision cross section (N2),[4]; [M-H]-,256.82 Å²
CCCCCC/C=C\CCCCCCCC(=O)OC(COC(=O)CCCCCCCC1CC1CCCCCCCC)COP(=O)(O)OCC(O)COP(=O)(O)OCC(COC(=O)CCCCCCCCCCCCCCC)OC(=O)CCCCCCC/C=C\CCCCCCCC (centres undefined) [CL(69:3)],collision cross section (N2),[4]; [M-2H]2-,408.91 Å²
CCCCCCCC/C=C\CCCCCCCC(=O)OCC(COP(=O)(O)OCC(O)CO)OC(=O)CCCCCCC/C=C\CCCCCCCC (centres undefined) [PG(36:2)],collision cross section (N2),[4]; [M+Na]+,283.87 Å²
same,collision cross section (N2),[4]; [M-H]-,275.05 Å²
CCCCCC/C=C\CCCCCCCCCC(=O)OC[C@H](COP(=O)([O-])OCC[N+](C)(C)C)OC(=O)CCCCCCCCCCCCC [PC(32:1)],collision cross section (N2),[1]; [M+Na]+,282.6 Å²
same,collision cross section (N2),[2]; [M+H]+,279.13 Å²
same,collision cross section (N2),[5],278 Å²
CCCCC/C=C\C/C=C\C/C=C\CCCCCCCCC(=O)OC[C@@H](COC(=O)CCCCCCC/C=C\CCCCCCC)OC(=O)CCCCCCCCCCCCCCCCCC [TG(58:4)],collision cross section (N2),[1]; [M+NH4]+,336.6 Å²
same,collision cross section (N2),[2]; [M+NH4]+,340.43 Å² and 336.2 Å²
